Source: PMC4560162, “Discovery of small molecule inhibitors of xyloglucan endotransglucosylase (XET) activity by high-throughput screening” (Phytochemistry, 2015)
pIC50: −log10 of the molar value. Several values for one entry are separate records, joined by “and”; a condition that tells them apart may be missing. Identical values can stand only once. Like-named read-outs stand apart in the source and are kept apart here.

Tests used:
[1] = tested on: Zea cell-suspension cultures; experiment: Membrane function ([14C]proline uptake) in Zea culture; type: cell-based, Zea mays; conditions: 4 d after xenobiotic
[2] = tested on: Petroselinum xyloglucan endotransglucosylase (XET) activity; experiment: Fluorescent dot-blot XET screen (cellulose-bound xyloglucan + XGO–SR on paper, in the dark); type: biochemical, parsley; conditions: for effect on XET activity in dot-blot (inhibition / promotion): EDI 0.4 mg/ml, LATCA 50 μM, 2 h, dark, cellulose-bound xyloglucan
Description: For inhibitor screening, 53 new 96-well plates were set up with 50 μl of parsley enzyme extract per well, and 1 μl of DMSO-solubilised xenobiotic was added to each well, giving concentrations of 0.4 mg/ml (EDI collection, with exceptions noted in Table S2) or 50 μM (LATCA collection) and 2% v/v DMSO.
XET test-paper was prepared as before ([Fry, 1997]) and 112 × 75-mm sheets were attached to cellulose acetate overhead-projector sheets with ‘Spraymount’ adhesive. Each sheet was placed on a pre-cooled glass plate in a cold room at 4 °C.
For inhibitor screening (Fig. 2), 4 μl of a parsley enzyme/xenobiotic mixture was applied to each position on a sheet. Incubation at 20 °C for 2 h, washing, drying and photography were conducted essentially as above.

[3] = tested on: parsley XET activity; experiment: Radiochemical XET assay (soluble xyloglucan + [3H]XXXGol); type: biochemical; conditions: for effect on XET activity, radiochemical re-screen of 206 compounds (mostly LATCA): LATCA approx. 25 μM, EDI approx. 200 μg/ml, listed in order of decreasing effectiveness; for effect on XET activity, first radiochemical re-screen of EDI hits: most xenobiotics at 200 μg/ml (≈200–800 μM); for pIC50: read-out: IC50 (concentration required for 50% inhibition of XET activity), radiochemical assay, 20 °C; for pIC50 / effect on XET activity in radiochemical assays (as summarised in the discussion): soluble xyloglucan, laboratory light; for effect on XET activity in radiochemical assays (as summarised in the discussion): free solution
Description: The parsley enzyme concentration was held constant, and the xenobiotics were tested at 200, 160, 120, 80, 40, 20, 10 and 0 μg/ml (concentrations in the final reaction mixture). Other details were as above.
The riboflavin-free controls received the same DMSO concentration.

[4] = tested on: Rosa cell-suspension cultures; experiment: Membrane function ([14C]proline uptake) in Rosa culture; type: cell-based, Rosa ("Paul's Scarlet" rose); conditions: 4 d after xenobiotic
Description: Before testing the effects of XET-inhibitors on cell expansion, we defined their non-toxic concentrations. The eight XET-inhibiting xenobiotics mentioned in §2.7 were tested for cytotoxicity in cultured Rosa and Zea cells, by simple tests of the compounds’ ability to inhibit membrane and ribosome function based on [^14C]proline uptake and incorporation. In xenobiotic-free control 4-d-old Rosa cultures, 93.3% and 94.3% of the supplied [^14C]proline was absorbed from the medium within 2 and 4 h respectively, indicating healthy membrane function. In xenobiotic-free 4-d-old Zea cultures, the corresponding figures were 93.9% and 92.5%. By 4 h, 5.5% of the total [^14C]proline supplied had been incorporated into protein by Rosa and 9.3% by Zea cells, indicating healthy ribosome function. Against these control rates, we recorded any inhibition of membrane and ribosome function by the xenobiotics (Fig. 8). Each xenobiotic was tested at two concentrations (¼ and ^1/20 of the lowest non-tolerated concentration), which had been selected on the basis of preliminary experiments with a dilution series of the xenobiotic.
Eight xenobiotics that inhibited XET activity were selected for biological testing. Mini-cultures [2 ml, 5% (v/v) SCV; transferred from a standard culture 7 d after sub-culturing] were incubated in 12-well tissue culture microplates with the lids closed loosely. Xenobiotics were added as concentrated stocks in DMSO (final DMSO concentration 2%), and incubation was continued aseptically under standard conditions of temperature, lighting and shaking. After 4 d, 1 kBq of [^14C]proline was added per mini-culture. […] The culture was brought up to 10 ml with water and the settled and packed cell volumes (SCV, PCV) were then measured ([Fry and Street, 1980]). […] After 0.5 h at 100 °C, a 100-μl aliquot of the centrifuged SDS-extract was dried onto Whatman No. 3 paper, which was then washed in 75% ethanol supplemented with 0.5% acetic acid, thus removing free [^14C]proline and its low-Mr metabolites if any; radioactivity remaining on the paper ([^14C]protein) was then assayed.

[5] = tested on: Zea cell-suspension cultures; experiment: Cell expansion (SCV, PCV) in Zea cell-suspension culture; type: cell-based, Zea mays; conditions: for concentration inhibiting growth (PCV) without membrane impairment: Zea, 4 d incubation
Description: (§1) Cell-suspension cultures of “Paul’s Scarlet” rose [a complex hybrid; genus Rosa; isolated in October 1957 from sections of young stem material; [Nickell and Tulecke, 1959]) and maize (Zea mays L., Black Mexican Sweetcorn, donated by Dr. I. Moore, Department of Botany, University of Edinburgh) were grown under constant dim illumination (10 μmol m^−2 s^−1) on an orbital shaker at 25 °C. Rose cells were maintained as described by [Chormova et al. (2014)] and maize cells as described by [Kerr and Fry (2003)].
(§2) Eight xenobiotics that inhibited XET activity were selected for biological testing. Mini-cultures [2 ml, 5% (v/v) SCV; transferred from a standard culture 7 d after sub-culturing] were incubated in 12-well tissue culture microplates with the lids closed loosely. Xenobiotics were added as concentrated stocks in DMSO (final DMSO concentration 2%), and incubation was continued aseptically under standard conditions of temperature, lighting and shaking. After 4 d, 1 kBq of [^14C]proline was added per mini-culture. A small volume of medium (50 μl) was sampled 2 and 4 h after [^14C]proline addition and assayed for remaining extracellular ^14C. The culture was brought up to 10 ml with water and the settled and packed cell volumes (SCV, PCV) were then measured ([Fry and Street, 1980]). Most of the culture medium was then removed and the cells were finally killed by addition of 0.5 ml of 6% SDS. After 0.5 h at 100 °C, a 100-μl aliquot of the centrifuged SDS-extract was dried onto Whatman No. 3 paper, which was then washed in 75% ethanol supplemented with 0.5% acetic acid, thus removing free [^14C]proline and its low-Mr metabolites if any; radioactivity remaining on the paper ([^14C]protein) was then assayed.

[6] = tested on: nine other cell-wall enzyme activities; experiment: Dot-blot assays for nine additional wall enzyme activities; type: biochemical, parsley and lucerne (alfalfa); conditions: xenobiotic 200 mg/l
Description: Radiolabelled oligosaccharide ([1-^3H]Gal12-ol or [1-^3H]Xyl6-ol; 1 kBq; containing a trace of Orange G) was dried into each well of a 96-well plate. […] The mixture was incubated for 24 h (for Gal12-ol) or 48 h (for Xyl6-ol), then the 5-μl reaction mixture was dried onto each position on a piece of plain Whatman No. 1 paper in 96-well format. Visual inspection of the Orange G verified that the samples had been correctly applied to the paper. […] Thus, in this assay, radioactive spots reveal inhibition of the enzyme.

[7] = tested on: Rosa cell-suspension cultures; experiment: Cell expansion (SCV, PCV) in Rosa cell-suspension culture; type: cell-based, Rosa ("Paul's Scarlet" rose); conditions: for concentration inhibiting growth (PCV) without membrane impairment: Rosa, 4 d incubation
Description: as §1, §2

[8] = biological target: cyclic-AMP-dependent protein kinase, PKA; set-up: method as in Losiewicz et al., 1994; conditions: ref Losiewicz et al., 1994; cited from earlier work

Molecule | membrane function ([1]; at the concentrations tested) | effect on XET activity in dot-blot (inhibition / promotion) [2] | membrane function ([1]; higher tested concentration) | pIC50 ([3]; 2 h) | effect on XET activity, radiochemical re-screen of 206 compounds (mostly LATCA) [3] | concentration inhibiting growth (PCV) without membrane impairment [5] | number of the nine other wall enzyme activities inhibited [6] | also measured
CCOc1ccc(Nc2ccc(/C(=C3C=C/C(=[N+](/CC)Cc4cccc(S(=O)(=O)[O-])c4)C=C/3C)c3ccc(N(CC)Cc4cccc(S(=O)(=O)O)c4)cc3C)cc2)cc1 [brilliant blue G] |  |  | impaired |  |  | 100 µM | three | effect on XET activity, first radiochemical re-screen of EDI hits [3]: inhibitory; membrane function ([4]; higher tested concentration): impaired
O=c1c2ccccc2[se]n1-c1ccccc1 [ebselen] |  | XET inhibitor |  |  | inhibition | 70 µM |  | 
CN1CC[C@H](c2c(O)cc(O)c3c(=O)cc(-c4ccccc4Cl)oc23)[C@H](O)C1 [flavopiridol] |  |  |  |  |  |  |  | pIC50 [8]: 3.84
COC(=O)/C(=C1/OC(=O)C(c2ccccc2)=C1O)c1ccccc1 [vulpinic acid] |  | did not show inhibitory effects |  |  |  |  | two | effect on XET activity in radiochemical assays (as summarised in the discussion) [3]: inhibitor; membrane function ([4]; at the concentrations tested): impaired
erythrosin B | impaired |  |  | 4.44 | inhibition |  |  | concentration that inhibited cell expansion / culture growth (abstract) ([5]; Zea cell-suspension culture): 1 µM; effect on XET activity, first radiochemical re-screen of EDI hits [3]: inhibitory; pIC50 ([3]; 2 h, listed as erythrosin B): ~4.52; concentration that inhibited cell expansion (abstract) ([7]; Rosa cell-suspension culture): 1 µM; concentration inhibiting growth (PCV) without membrane impairment [7]: 1.1 µM

Continued, in another order:

membrane function ([1]; at the concentrations tested) | effect on XET activity in dot-blot (inhibition / promotion) [2] | membrane function ([1]; higher tested concentration) | pIC50 ([3]; 2 h) | Molecule | effect on XET activity, radiochemical re-screen of 206 compounds (mostly LATCA) [3] | concentration inhibiting growth (PCV) without membrane impairment [5] | number of the nine other wall enzyme activities inhibited [6] | also measured
only slightly | did not show inhibitory effects |  |  | CC1=C(/C=C/C(C)=C/C=C/C(C)=C\C(=O)O)C(C)(C)CCC1 [13-cis-retinoic acid] | inhibition |  |  | membrane function ([4]; higher tested concentration): impaired
 | promoted | impaired | ~3.40 | O=C(O[C@@H]1Cc2c(O)cc(O)cc2O[C@@H]1c1cc(O)c(O)c(O)c1)c1cc(O)c(O)c(O)c1 [epigallocatechin gallate, (−)-epigallocatechin gallate] |  | 40 µM | eight | effect on XET activity in dot-blot (inhibition / promotion) ([2]; listed as (−)-epigallocatechin gallate): coagulating promoter; coagulation ('type c' effect) in dot-blot ([2]; EDI collection, 0.4 mg/ml in enzyme mixture): coagulation; effect on XET activity in radiochemical assays (as summarised in the discussion) [3]: inhibited; concentration inhibiting growth (PCV) without membrane impairment [7]: 870 µM
 |  | impaired |  | COc1c(C)c2c(c(O)c1C/C=C(\C)CCC(=O)O)C(=O)OC2 [mycophenolic acid] |  | 60 µM |  | 
impaired |  |  | 4.54 and ~4.52 | Cc1cc2nc3c(=O)[nH]c(=O)nc-3n(C[C@H](O)[C@H](O)[C@H](O)CO)c2cc1C [riboflavin] | inhibition |  | eight | [3H]Xyloglucan formed, Low light ([3]; 0.5 mM riboflavin, 0.2 lux, 2 h, control without riboflavin 8861 ± 105, mean ± SE of 4): 5390 ± 130 cpm; [3H]Xyloglucan formed, High light ([3]; 0.5 mM riboflavin, 1100 lux, 2 h, control without riboflavin 8942 ± 349, mean ± SE of 4): 807 ± 63 cpm
